The text below walks through data of patent publication US9957265B2, “N-(2-cyano heterocyclyl) pyrazolo pyridones as janus kinase inhibitors” (Merck Sharp & Dohme Corp., priority 2013, dated 2018).

One assay concerns the target JAK2 (Homo sapiens (Human), UniProt O60674). Kind of assay: Jak Biochemical HTRF Assay (JAK2). On the technique in general: In TR-FRET formats the signal depends on donor and acceptor labels being close together.
For a further assay, the target named is JAK1 (Homo sapiens (Human), UniProt P23458). The assay can be described thus: Jak Biochemical HTRF Assay (JAK1). To be noted: recombinant GST-tagged catalytic domain, [ATP] 31.8 μM, unit not given (compound concentrations tested given in nM). An excerpt:
Jak Biochemical HTRF Assay Protocol
Subsequent reagent additions employed an Agilent Bravo.

Setting [1] is: JAK2 IC50, recombinant GST-tagged catalytic domain, [ATP] 8.5 μM, unit not given (compound concentrations tested given in nM).
The mark [2] stands for this setting: read-out: JAK2 IC50, recombinant GST-tagged catalytic domain, [ATP] 8.5 μM, unit not given (compound concentrations tested given in nM).

Each structure is given as a SMILES string. Like-named read-outs stand apart in the source and are kept apart here.

Chain of JAK2 (O60674 849-1124): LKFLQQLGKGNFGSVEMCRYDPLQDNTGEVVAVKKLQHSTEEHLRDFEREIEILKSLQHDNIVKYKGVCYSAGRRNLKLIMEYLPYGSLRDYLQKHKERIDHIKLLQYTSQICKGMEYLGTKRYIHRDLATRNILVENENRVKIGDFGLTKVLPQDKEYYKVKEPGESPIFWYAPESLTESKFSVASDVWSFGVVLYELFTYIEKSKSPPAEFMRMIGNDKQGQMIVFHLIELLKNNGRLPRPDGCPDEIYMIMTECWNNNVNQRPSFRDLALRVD
Chain of JAK1 (P23458 875-1153): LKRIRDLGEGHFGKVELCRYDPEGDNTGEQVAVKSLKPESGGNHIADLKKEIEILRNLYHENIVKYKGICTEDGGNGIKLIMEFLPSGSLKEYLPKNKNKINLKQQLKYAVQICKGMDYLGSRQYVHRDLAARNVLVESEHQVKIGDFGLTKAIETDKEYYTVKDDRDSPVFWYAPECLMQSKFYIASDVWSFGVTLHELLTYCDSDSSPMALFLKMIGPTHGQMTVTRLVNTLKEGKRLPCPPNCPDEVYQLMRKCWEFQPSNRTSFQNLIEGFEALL
Method for JAK2: The ability of compounds to inhibit the activity of JAK1, JAK2, JAK3, and TYK2 was measured using a recombinant purified GST-tagged catalytic domain for each enzyme (Invitrogen JAK1 #M4290, JAK2 #M4290, JAK3 #M4290, TYK2 #M4290) in an HTRF format biochemical assay. […] Subsequent reagent additions employed an Agilent Bravo. […] After equilibration, 2 μL of 10×ATP in 1× assay buffer was added to initiate the kinase reaction and the plates were shaken and then incubated at room temperature for 120 minutes. […] After normalization to untreated controls, the percent inhibition of the HTRF signal at each compound concentration was calculated. The plot of percent inhibition versus the log of compound concentration was fit with a 4-parameter dose response equation to calculate IC50 values.
Final reaction conditions were:

Regarding `CC1(C)CC1NC(c1ccc(Nc2nn([C@H]3COCC[C@@H]3C#N)c3cc[nH]c(=O)c23)cc1)C(F)(F)F` (single isomer, unassigned) [Example 1-47, (3R,4S)-3-{3-[(4S or 4R-{1S or 1R-[(2,2-dimethylcyclopropyl)amino]-2,2,2-trifluoroethyl}phenyl)amino]-4-oxo-4,5-dihydro-1H-pyrazolo[4,3-c]pyridin-1-yl}tetrahydro-2H-pyran-4-carbonitrile], the IC50 on JAK2 (setting [1]) came to 0.43 nM; at JAK1 it was 0.27 nM.
In the same order, the values of `CCNC(c1ccc(Nc2nn([C@H]3COCC[C@@H]3C#N)c3cc[nH]c(=O)c23)cc1)C(F)(F)F` (single isomer, unassigned) [Example 1-55, (3R,4S)-3-[3-({4-[(1S or 1R)-1-(ethylamino)-2,2,2-trifluoroethyl]phenyl}amino)-4-oxo-4,5-dihydro-1H-pyrazolo[4,3-c]pyridin-1-yl] tetrahydro-2H-pyran-4-carbonitrile] are 0.12 nM and 0.08 nM.
As for `CC(C)(C)S(=O)(=O)c1ccc(Nc2nn([C@@H]3CCOCC[C@@H]3C#N)c3cc[nH]c(=O)c23)cc1` (single isomer, unassigned) [Example 1-29, (4S,5R or 4R,5S)-5-(3-{[4-(tert-butylsulfonyl)phenyl]amino}-4-oxo-4,5-dihydro-1H-pyrazolo[4,3-c]pyridin-1-yl)oxepane-4-carbonitrile], the IC50 at JAK1 worked out at 4.38 nM.
Turning to `CC(C)CNC(c1ccc(Nc2nn([C@H]3COCC[C@@H]3C#N)c3cc[nH]c(=O)c23)cc1)C(F)(F)F` (single isomer, unassigned) [Example 1-91, (3R,4S)-3-{4-oxo-3-[(4-{(1R or 1S)-2,2,2-trifluoro-1-[(2-methylpropyl)amino]ethyl}phenyl)amino]-4,5-dihydro-1H-pyrazolo[4,3-c]pyridin-1-yl}tetrahydro-2H-pyran-4-carbonitrile], the IC50 is 0.21 nM at JAK2 (setting [1]) and 0.17 nM on JAK1.
Regarding `C[S+]([O-])c1cc(Nc2nn([C@H]3COCC[C@@H]3C#N)c3cc[nH]c(=O)c23)ccc1F` (single isomer, unassigned) [Example 3-3, (3R,4S)-3-(3-((4-fluoro-3-((S or R)-methylsulfinyl)phenyl)amino)-4-oxo-4,5-dihydro-1H-pyrazolo[4,3-c]pyridin-1-yl)tetrahydro-2H-pyran-4-carbonitrile], the IC50 is 7.44 nM on JAK2 (setting [1]) and 1.64 nM on JAK1.
Consider `N#C[C@H]1CCOC[C@@H]1n1nc(Nc2ccnc(F)c2)c2c(=O)[nH]ccc21` [Example 1-30, (3R,4S)-3-{3-[(2-fluoropyridin-4-yl)amino]-4-oxo-4,5-dihydro-1H-pyrazolo[4,3-c]pyridin-1-yl}tetrahydro-2H-pyran-4-carbonitrile], for which the values for the IC50 on JAK2 (setting [2]) and on JAK1 were 4.65 nM and 0.25 nM, respectively.
Regarding `CC(C)(C)NC(c1ccc(Nc2nn([C@H]3COCC[C@@H]3C#N)c3cc[nH]c(=O)c23)cc1)C(F)(F)F` (single isomer, unassigned) [Example 1-50, (3R,4S)-3-[3-({4-[(1R or 1S)-1-(tert-butylamino)-2,2,2-trifluoroethyl]phenyl}amino)-4-oxo-4,5-dihydro-1H-pyrazolo[4,3-c]pyridine-1-yl]tetrahydro-2H-pyran-4-carbonitrile], on JAK1, the IC50 was found to be 0.08 nM.
Consider `N#C[C@H]1CCOC[C@@H]1n1nc(Nc2ccccc2)c2c(=O)[nH]ccc21` [Example 1-3, (3R,4S)-3-(4-oxo-3-(phenylamino)-4,5-dihydro-1H-pyrazolo[4,3-c]pyridin-1-yl)tetrahydro-2H-pyran-4-carbonitrile], for which the IC50 on JAK2 (setting [2]) was 1.39 nM; at JAK1, 0.11 nM.
As for `N#C[C@H]1CCOCC1n1nc(Nc2ccc(C(O)(c3ccncc3)C(F)(F)F)cc2)c2c(=O)[nH]ccc21` (single isomer, unassigned) [Example 1-94, (3R,4S)-3-(4-oxo-3-((4-((S or R)-2,2,2-trifluoro-1-hydroxy-1-(pyridin-4-yl)ethyl)phenyl)amino)-4,5-dihydro-1H-pyrazolo[4,3-c]pyridin-1-yl)tetrahydro-2H-pyran-4-carbonitrile], the results for the IC50 on JAK2 (setting [1]) and at JAK1 were 0.15 nM and 0.08 nM, respectively.
Regarding `CC(C)(C)S(=O)(=O)c1ccc(Nc2nn([C@H]3CCOCC[C@H]3C#N)c3cc[nH]c(=O)c23)cc1` (single isomer, unassigned) [Example 1-28, (4R,5S or 4S,5R)-5-(3-{[4-(tert-butylsulfonyl)phenyl]amino}-4-oxo-4,5-dihydro-1H-pyrazolo[4,3-c]pyridin-1-yl)oxepane-4-carbonitrile], the IC50 on JAK1 worked out at 5.34 nM.
Take `N#C[C@H]1CCOC[C@@H]1n1nc(Nc2ccc(C(N3CCC3)C(F)(F)F)cc2)c2c(=O)[nH]ccc21` (single isomer, unassigned) [Example 1-57, (3R,4S)-3-[3-({4-[(1S or 1R)-1-azetidin-1-yl-2,2,2-trifluoroethyl]phenyl}amino)-4-oxo-4,5-dihydro-1H-pyrazolo[4,3-c]pyridin-1-yl]tetrahydro-2H-pyran-4-carbonitrile]: at JAK1, the IC50 was 0.09 nM.
The same measure, in the same setting: then `CC(C)(C)NC(c1ccc(Nc2nn([C@H]3COCC[C@@H]3C#N)c3cc[nH]c(=O)c23)cc1)C(F)(F)F` (single isomer, unassigned) [Example 1-51, (3R,4S)-3-[3-[3-({4-[(1S or 1R)-1-(tert-butylamino)-2,2,2-trifluoroethyl]phenyl}amino)-4-oxo-4,5-dihydro-1H-pyrazolo[4,3-c]pyridin-1-yl]tetrahydro-2H-pyran-4-carbonitrile], with 0.08 nM; and `CC1(C)CC2(c3ccc(Nc4nn([C@H]5COCC[C@@H]5C#N)c5cc[nH]c(=O)c45)cc3)CCC1C(=O)O2` (stereo partly drawn) [Example 1-21, (3R,4S)-3-(3-{[4-(5,5-dimethyl-3-oxo-2-oxabicyclo[2.2.2]oct-1-yl)phenyl]amino}-4-oxo-4,5-dihydro-1H-pyrazolo[4,3-c]pyridin-1-yl)tetrahydro-2H-pyran-4-carbonitrile], with 0.08 nM; and `CC(C)(C)S(=O)(=O)c1ccc(Nc2nn([C@@H]3CCOCC[C@H]3C#N)c3cc[nH]c(=O)c23)cc1` (single isomer, unassigned) [Example 1-27, (4R,5R or 4S,5S)-5-(3-{[4-(tert-butylsulfonyl)phenyl]amino}-4-oxo-4,5-dihydro-1H-pyrazolo[4,3-c]pyridin-1-yl)oxepane-4-carbonitrile], with 22.4 nM.
Same read-out and setting: then `CC1(C)CC2(c3ccc(Nc4nn([C@H]5COCC[C@@H]5C#N)c5cc[nH]c(=O)c45)cc3)CCC1C(=O)O2` (stereo partly drawn) [Example 1-20, (3R,4S)-3-(3-{[4-(5,5-dimethyl-3-oxo-2-oxabicyclo[2.2.2]oct-1-yl)phenyl]amino}-4-oxo-4,5-dihydro-1H-pyrazolo[4,3-c]pyridin-1-yl)tetrahydro-2H-pyran-4-carbonitrile], with 0.07 nM; and `CC(C)(C)S(=O)(=O)c1ccc(Nc2nn([C@H]3CCOCC[C@@H]3C#N)c3cc[nH]c(=O)c23)cc1` (single isomer, unassigned) [Example 1-26, (4S,5S or 4R,5R)-5-(3-{[4-(tert-butylsulfonyl)phenyl]amino}-4-oxo-4,5-dihydro-1H-pyrazolo[4,3-c]pyridin-1-yl)oxepane-4-carbonitrile], with 0.71 nM; and `CC1CN(S(=O)(=O)c2ccc(Nc3nn([C@H]4COCC[C@@H]4C#N)c4cc[nH]c(=O)c34)cc2)C1` [Example 1-70, (3R,4S)-3-[3-({4-[(3-methylazetidin-1-yl)sulfonyl]phenyl}amino)-4-oxo-4,5-dihydro-1H-pyrazolo[4,3-c]pyridin-1-yl]tetrahydro-2H-pyran-4-carbonitrile], with 0.15 nM.
For `CC(C)C(C)(C)S(=O)(=O)c1ccc(Nc2nn([C@H]3COCC[C@@H]3C#N)c3cc[nH]c(=O)c23)cc1` [Example 1-66, (3R,4S)-3-[4-oxo-3-({4-[(1,1,2-trimethylpropyl)sulfonyl]phenyl}amino)-4,5-dihydro-1H-pyrazolo[4,3-c]pyridin-1-yl]tetrahydro-2H-pyran-4-carbonitrile], the IC50 at JAK1 came to 0.07 nM.
Same read-out and setting: then `CC(C)(N)c1ccc(Nc2nn([C@H]3COCC[C@@H]3C#N)c3cc[nH]c(=O)c23)cc1` [Example 1-60, (3R,4S)-3-(3-{[4-(1-amino-1-methylethyl)phenyl]amino}-4-oxo-4,5-dihydro-1H-pyrazolo[4,3-c]pyridin-1-yl)tetrahydro-2H-pyran-4-carbonitrile], with 0.21 nM.
Still for that read-out and setting: then `N#C[C@H]1CCOCC1n1nc(Nc2ccc(C3(C(F)(F)F)CCNC3)cc2)c2c(=O)[nH]ccc21` (single isomer, unassigned) [Example 1-98, (3R,4S)-3-(4-oxo-3-((4-((S or R)-3-(trifluoromethyl)pyrrolidin-3-yl)phenyl)amino)-4,5-dihydro-1H-pyrazolo[4,3-c]pyridin-1-yl)tetrahydro-2H-pyran-4-carbonitrile], with 0.06 nM.
Same read-out and setting: as for `N#C[C@H]1CCOCC1n1nc(Nc2ccc(C3(C(F)(F)F)CCNC3)cc2)c2c(=O)[nH]ccc21` (single isomer, unassigned) [Example 1-99, (3R,4S)-3-(4-oxo-3-((4-((S or R)-3-(trifluoromethyl)pyrrolidin-3-yl)phenyl)amino)-4,5-dihydro-1H-pyrazolo[4,3-c]pyridin-1-yl)tetrahydro-2H-pyran-4-carbonitrile], the figure is 0.07 nM; as for `N#C[C@H]1CCOC[C@@H]1n1nc(Nc2ccc(C(N3CCC3)C(F)(F)F)cc2)c2c(=O)[nH]ccc21` (single isomer, unassigned) [Example 1-56, (3R,4S)-3-[3-({4-[(1R or 1S)-1-azetidin-1-yl-2,2,2-trifluoroethyl]phenyl}amino)-4-oxo-4,5-dihydro-1H-pyrazolo[4,3-c]pyridin-1-yl]tetrahydro-2H-pyran-4-carbonitrile], 0.06 nM.
